Counter-ions that a name gives are not always drawn. Like-named read-outs stand apart in the source and are kept apart here.
Assays:
[1] = cited from earlier work
[2] = spectrophotometric analysis at 228 nm before and after filtration via a 0.22 micron filter (Example 12); assay type: physicochemical; settings: at 18 mg/ml in 70% ethanol
Description: A UV-VIS Genesys 10S Thermo Scientific spectrophotometer was used for the assay. Samples were placed in a UV Kurette Halbmicro/UV Cuvette semi micro [Cat no: 759150] for reading.
Because the reference describes measurements at μg/ml concentrations, both the filtered and unfiltered 18 mg/ml solutions were diluted to 9 μg/ml and 12.5 μg/ml and measured again.

[3] = solubility of sildenafil citrate in EtOH/water mixtures with and without acetone (Example 1); assay type: physicochemical; settings: Table 1; sildenafil citrate remaining in solution after heating
[4] = tablets or oral suspension; cited from earlier work
[5] = EMEA CHMP Assessment Report For Vizarsin
[6] = Jordanian Pharmaceutical Manufacturing Co.

solubility as prepared in Example 1 [2]: fully soluble
Final conc. (After heating) [3]: ≤ 35.7 mg/mL
SMILES: CCCc1nn(C)c2c(=O)[nH]c(-c3cc(S(=O)(=O)N4CCN(C)CC4)ccc3OCC)nc12 [sildenafil citrate]
solubility in acetone [1, 5]: insoluble
solubility in chloroform [1, 5]: insoluble
solubility in dimethylsulfoxide (DMSO) [1, 5]: soluble
solubility in ethanol [1, 5]: insoluble
solubility in methanol [1, 5]: soluble
solubility in ethanol [1, 6]: ~1000 µg/mL
times less soluble in ethanol than in water [1, 6]: about 3.5 times
absolute bioavailability [4]: about 41%
